Patent US12180215B2, “Substituted pyrrolo[3,4-d]imidazoles as JAK inhibitors” (HENAN MEDINNO PHARMACEUTICAL TECHNOLOGY CO., LTD., priority 2019, dated 2024)
pIC50: −log10 of the molar value.

How the values were obtained:
JAK1 = JAK1 (Homo sapiens, UniProt P23458); assay: JAK1 kinase ADP-Glo assay (Example 60)
JAK2 = JAK2 (Homo sapiens, UniProt O60674); assay: JAK2 kinase ADP-Glo assay (Example 60)
JAK3 = JAK3 (Homo sapiens, UniProt P52333); assay: JAK3 kinase ADP-Glo assay (Example 60)
TYK2 = target: T1, TYK2 (Homo sapiens, UniProt P29597); assay: TYK2 kinase ADP-Glo assay (Example 60)
T1 sequence (P29597 871-1187 limits assumed): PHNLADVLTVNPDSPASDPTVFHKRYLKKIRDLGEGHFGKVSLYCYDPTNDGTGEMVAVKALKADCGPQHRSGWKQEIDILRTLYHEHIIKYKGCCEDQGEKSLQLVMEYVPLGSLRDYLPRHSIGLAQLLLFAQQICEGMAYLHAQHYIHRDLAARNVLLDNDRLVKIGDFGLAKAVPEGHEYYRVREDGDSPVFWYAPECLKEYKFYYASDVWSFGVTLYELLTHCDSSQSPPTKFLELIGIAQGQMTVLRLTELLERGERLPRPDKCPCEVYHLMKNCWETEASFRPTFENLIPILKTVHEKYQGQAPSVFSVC

Sequence of JAK2 (O60674 826-1132 limits assumed): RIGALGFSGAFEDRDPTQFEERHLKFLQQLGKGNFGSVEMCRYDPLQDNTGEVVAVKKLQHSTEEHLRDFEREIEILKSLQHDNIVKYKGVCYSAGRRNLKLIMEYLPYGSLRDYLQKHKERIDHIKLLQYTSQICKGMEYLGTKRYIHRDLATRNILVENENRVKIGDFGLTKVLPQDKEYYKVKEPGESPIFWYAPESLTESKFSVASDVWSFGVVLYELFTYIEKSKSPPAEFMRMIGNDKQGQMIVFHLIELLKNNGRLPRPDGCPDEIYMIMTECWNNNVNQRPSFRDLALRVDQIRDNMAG
Sequence of JAK3 (P52333 795-1124 limits assumed): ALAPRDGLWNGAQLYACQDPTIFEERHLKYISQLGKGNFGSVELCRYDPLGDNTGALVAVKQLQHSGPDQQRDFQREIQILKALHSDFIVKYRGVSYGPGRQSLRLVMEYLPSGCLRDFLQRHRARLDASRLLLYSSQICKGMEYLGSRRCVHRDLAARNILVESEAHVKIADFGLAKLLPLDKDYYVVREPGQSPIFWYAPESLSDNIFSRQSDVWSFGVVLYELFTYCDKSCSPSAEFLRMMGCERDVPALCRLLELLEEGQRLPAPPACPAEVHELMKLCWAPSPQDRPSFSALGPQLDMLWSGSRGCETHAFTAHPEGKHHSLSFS
Sequence of JAK1 (P23458 850-1154 limits assumed): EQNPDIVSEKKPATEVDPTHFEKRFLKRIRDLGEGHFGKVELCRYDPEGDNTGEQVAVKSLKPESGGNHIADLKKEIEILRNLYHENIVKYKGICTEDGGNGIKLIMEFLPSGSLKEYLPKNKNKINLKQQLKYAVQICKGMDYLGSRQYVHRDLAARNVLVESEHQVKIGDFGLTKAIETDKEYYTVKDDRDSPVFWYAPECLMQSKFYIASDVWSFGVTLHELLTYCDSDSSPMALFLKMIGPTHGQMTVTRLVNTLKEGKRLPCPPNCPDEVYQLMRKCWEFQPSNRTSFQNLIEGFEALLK

pIC50 (JAK1) | pIC50 (JAK2) | pIC50 (JAK3) | pIC50 (TYK2) | Structure (SMILES)
9.28 | 8.93 | 9.05 | 8.88 | CCc1cc(O)c(F)cc1-c1ccc2c(-c3nc4c([nH]3)CN(C(=O)N3CCCC3)C4)n[nH]c2c1 [MDI-231, (2-(6-(2-ethyl-5-fluoro-4-hydroxyphenyl)-1H-indazol-3-yl)-4,6-dihydropyrrolo[3,4-d]imidazol-5-(1H)-yl)(pyrrolidin-1-yl)ketone]
9.13 | 8.98 | 9.06 | 8.65 | CCc1cc(O)c(F)cc1-c1ccc2c(-c3nc4c([nH]3)CN(C(=O)N3CCC3)C4)n[nH]c2c1 [MDI-232, Azetidin-1-yl(2-(6-(2-ethyl-5-fluoro-4-hydroxyphenyl)-1H-indazol-3-yl)-4,6-dihydropyrrolo[3,4-d]imidazol-5-(1H)-yl)ketone]
9.69 | 9.13 | 9.43 | 9.36 | CCc1cc(O)c(F)cc1-c1ccc2c(-c3nc4c([nH]3)CN(C(=O)N3CCOCC3)C4)n[nH]c2c1 [MDI-234, (2-(6-(2-ethyl-5-fluoro-4-hydroxyphenyl)-1H-indazol-3-yl)-4,6-dihydropyrrolo[3,4-d]imidazol-5-(1H)-yl)(morpholino)ketone]
9.35 | 9.07 | 8.69 | 8.27 | CCc1cc(O)c(F)cc1-c1cc(C)c2c(-c3nc4c([nH]3)CN(C(=O)N3CC[C@H](O)C3)C4)n[nH]c2c1 [MDI-240, (S)-(2-(6-(2-ethyl-5-fluoro-4-hydroxyphenyl)-4-methyl-1H-indazol-3-yl)-4,6-dihydropyrrolo[3,4-d]imidazol-5(1H)-yl)(3-hydroxylpyrrolidin-1-yl)ketone]
9.93 | 9.30 | 9.57 | 9.78 | CCc1cc(O)c(F)cc1-c1ccc2c(-c3nc4c([nH]3)CN(C(=O)N3CC[C@@H](O)C3)C4)n[nH]c2c1 [MDI-243, (R)-(2-(6-(2-ethyl-5-fluoro-4-hydroxyphenyl)-1H-indazol-3-yl)-4,6-dihydropyrrolo[3,4-d]imidazol-5(1H)-yl)(3-hydroxylpyrrolidin-1-yl)ketone]
9.61 | 9.04 | 9.26 | 8.88 | CCc1cc(O)c(F)cc1-c1ccc2c(-c3nc4c([nH]3)CN(C(=O)N3CC(O)C3)C4)n[nH]c2c1 [MDI-244, (2-(6-(2-ethyl-5-fluoro-4-hydroxyphenyl)-1H-indazol-3-yl)-4,6-dihydropyrrolo[3,4-d]imidazol-5(1H)-yl)(3-hydroxylazetidin-1-yl)ketone]
9.75 | 9.19 | 9.51 | 9.44 | CCc1cc(O)c(F)cc1-c1ccc2c(-c3nc4c([nH]3)CN(C(=O)N3CCC(O)CC3)C4)n[nH]c2c1 [MDI-245, (2-(6-(2-ethyl-5-fluoro-4-hydroxyphenyl)-1H-indazol-3-yl)-4,6-dihydropyrrolo[3,4-d]imidazol-5(1H)-yl)(4-hydroxylpiperidin-1-yl)ketone]
9.51 | 9.16 | 9.40 | 8.71 | CCc1cc(O)c(F)cc1-c1ccc2c(-c3nc4c([nH]3)CN(C(=O)N3CC(C#N)C3)C4)n[nH]c2c1 [MDI-249, 1-(2-(6-(2-ethyl-5-fluoro-4-hydroxyphenyl)-1H-indazol-3-yl)-1,4,5,6-tetrahydropyrrolo[3,4-d]imidazol-5-carbonyl)Azetidin-3-nitrile]

The next lines start with the compound.

Structure (SMILES) | pIC50 (JAK1) | pIC50 (JAK2) | pIC50 (JAK3) | pIC50 (TYK2)
CCc1cc(O)c(F)cc1-c1ccc2c(-c3nc4c([nH]3)CN(C3CCCC3)C4)n[nH]c2c1 [MDI-224, 4-(3-(5-cyclopentyl-1,4,5,6-tetrahydropyrrolo[3,4-d]imidazol-2-yl)-1H-indazol-6-yl)-5-ethyl-2-fluorophenol] | 9.61 | 9.12 | 8.70 | 7.79
CCc1cc(O)c(F)cc1-c1ccc2c(-c3nc4c([nH]3)CN(C3CCOCC3)C4)n[nH]c2c1 [MDI-225, 5-ethyl-2-fluoro-4-(3-(5-(tetrahydro-2H-pyran-4-yl)-1,4,5,6-tetrahydropyrrolo[3,4-d]imidazol-2-yl)-1H-indazol-6-yl)phenol] | 9.65 | 9.41 | 9.31 | 8.46
CCC(=O)N1Cc2nc(-c3n[nH]c4cc(-c5cc(F)c(O)cc5CC)ccc34)[nH]c2C1 [MDI-227, 1-(2-(6-(2-ethyl-5-fluoro-4-hydroxyphenyl)-1H-indazol-3-yl)-4,6-dihydropyrrolo[3,4-d]imidazol-5-(1H)-yl)propan-1-one] | 9.65 | 9.61 | 9.36 | 8.41
CCc1cc(O)c(F)cc1-c1ccc2c(-c3nc4c([nH]3)CN(C(=O)C(C)C)C4)n[nH]c2c1 [MDI-228, 1-(2-(6-(2-ethyl-5-fluoro-4-hydroxyphenyl)-1H-indazol-3-yl)-4,6-dihydropyrrolo[3,4-d]imidazol-5-(1H)-yl)-2-methylpropan-1-one] | 9.40 | 9.45 | 9.25 | 8.32
CCc1cc(O)c(F)cc1-c1ccc2c(-c3nc4c([nH]3)CN(C(=O)CC3CC3)C4)n[nH]c2c1 [MDI-229, 2-cyclopropyl-1-(2-(6-(2-ethyl-5-fluoro-4-hydroxyphenyl)-1H-indazol-3-yl)-4,6-dihydropyrrolo[3,4-d]imidazol-5-(1H)-yl)ethan-1-one] | 9.12 | 9.45 | 9.32 | 8.33
CCc1cc(O)c(F)cc1-c1ccc2c(-c3nc4c([nH]3)CN(C(=O)CC(C)C)C4)n[nH]c2c1 [MDI-230, 1-(2-(6-(2-ethyl-5-fluoro-4-hydroxyphenyl)-1H-indazol-3-yl)-4,6-dihydropyrrolo[3,4-d]imidazol-5-(1H)-yl)-3-methylbutan-1-one] | 9.09 | 9.26 | 9.09 | 8.18
CCc1cc(O)c(F)cc1-c1ccc2c(-c3nc4c([nH]3)CN(C(=O)N3CCCCC3)C4)n[nH]c2c1 [MDI-233, (2-(6-(2-ethyl-5-fluoro-4-hydroxyphenyl)-1H-indazol-3-yl)-4,6-dihydropyrrolo[3,4-d]imidazol-5-(1H)-yl)(piperidin-1-yl)ketone] | 8.88 | 8.88 | 8.59 | 8.46
CCc1cc(O)c(F)cc1-c1ccc2c(-c3nc4c([nH]3)CN(C(=O)N3CCN(C)CC3)C4)n[nH]c2c1 [MDI-235, (2-(6-(2-ethyl-5-fluoro-4-hydroxyphenyl)-1H-indazol-3-yl)-4,6-dihydropyrrolo[3,4-d]imidazol-5-(1H)-yl)(4-methylpiperazin-1-yl)ketone] | 10.40 | 9.78 | 9.74 | 9.85
CCc1cc(O)c(F)cc1-c1ccc2c(-c3nc4c([nH]3)CN(C(=O)N3CCN(CC)CC3)C4)n[nH]c2c1 [MDI-236, (2-(6-(2-ethyl-5-fluoro-4-hydroxyphenyl)-1H-indazol-3-yl)-4,6-dihydropyrrolo[3,4-d]imidazol-5-(1H)-yl)(4-ethylpiperazin-1-yl)ketone] | 10.39 | 9.48 | 9.85 | 10.02
CCc1cc(O)c(F)cc1-c1cnc2c(-c3nc4c([nH]3)CN(C(=O)C3CC3)C4)n[nH]c2c1 [MDI-237, cyclopropyl (2-(6-(2-ethyl-5-fluoro-4-hydroxyphenyl)-1H-pyrazolo[4,3-b]pyridine-3-yl)-4,6-dihydropyrrolo[3,4-d]imidazol-5(1H)-yl)ketone] | 9.12 | 9.23 | 8.86 | 8.01
CCc1cc(O)c(F)cc1-c1cc(C)c2c(-c3nc4c([nH]3)CN(C(=O)C3CC3)C4)n[nH]c2c1 [MDI-239, cyclopropyl (2-(6-(2-ethyl-5-fluoro-4-hydroxyphenyl)-4-methyl-1H-indazol-3-yl)-4,6-dihydropyrrolo[3,4-d]imidazol-5(1H)-yl)ketone] | 8.94 | 8.92 | 8.31 | 7.72
CCc1cc(O)c(F)cc1-c1cc2[nH]nc(-c3nc4c([nH]3)CN(C(=O)C3CC3)C4)c2cn1 [MDI-242, cyclopropyl(2-(6-(2-ethyl-5-fluoro-4-hydroxyphenyl)-1H-pyrazolo[4,3-c]pyridine-3-yl)-4,6-dihydropyrrolo[3,4-d]imidazol-5(1H)-yl)ketone] | 7.17 | 7.54 | 6.82 | 6.23
CCc1cc(O)c(F)cc1-c1ccc2c(-c3nc4c([nH]3)CN(C(=O)NC)C4)n[nH]c2c1 [MDI-246, 2-(6-(2-ethyl-5-fluoro-4-hydroxyphenyl)-1H-indazol-3-yl)-N-methyl-4,6-dihydropyrrolo[3,4-d]imidazol-5-(1H)-carboxamide] | 9.62 | 9.01 | 9.15 | 8.82
CCNC(=O)N1Cc2nc(-c3n[nH]c4cc(-c5cc(F)c(O)cc5CC)ccc34)[nH]c2C1 [MDI-247, 2-(6-(2-ethyl-5-fluoro-4-hydroxyphenyl)-1H-indazol-3-yl)-N-ethyl-4,6-dihydropyrrolo[3,4-d]imidazol-5-(1H)-carboxamide] | 9.25 | 8.73 | 8.89 | 8.63
CCc1cc(O)c(F)cc1-c1ccc2c(-c3nc4c([nH]3)CN(C(=O)NCCO)C4)n[nH]c2c1 [MDI-248, 2-(6-(2-ethyl-5-fluoro-4-hydroxyphenyl)-1H-indazol-3-yl)-N-(2-hydroxylethyl)-4,6-dihydropyrrolo[3,4-d]imidazol-5(1H)-carboxamide] | 10.03 | 9.25 | 9.52 | 9.24
